Experimental data as given in US20210179680A1, “POLYPEPTIDE, DERIVATIVES THEREOF, AND APPLICATION THEREOF IN PREPARATION OF DRUGS HAVING RESISTANCE TO PULMONARY FIBROSIS” (priority 2016, published 2021).
Bridge positions count the residues as written; N and C are the ends. Square brackets hold non-standard residues; d marks the D form. Peptide text beside a SMILES is read from it. S5 = C=CCCC[C@](C)(N)C(=O)O

How the values were obtained:
[1] = tested on: mice with bleomycin-induced pulmonary fibrosis; assay: Survival rate of mice with bleomycin-induced pulmonary fibrosis; assay type: in vivo, C57BL/6 mice; conditions: Table 3 groups: 2 mg/kg i.p., 10th to 28th day after modeling, twice a week
Method: (§1) Male C57BL/6 mice were fasted overnight, then anesthetized with 45 mg/kg sodium pentobarbital by injection intraperitoneally (i.p.), and intratracheally injected with bleomycin at a dose of 3 U/kg. The specific operation steps are as follows: cut the neck skin of the mouse with as little trauma as possible, expose the trachea with the assistance of elbow ophthalmic forceps, puncture the trachea and inject about 50 μL of bleomycin into the trachea with a microsyringe, rotate the mouse quickly and stand it upright for 5 minutes in order to make bleomycin evenly enter the left and right lobe, thereby constructing an animal model. The whole operation was performed at a surgical table at about […]. Mice in the sham operation group were intratracheally injected with an equal amount of physiological saline for injection.
The animal model with pulmonary fibrosis was prepared according to the method described in Example 2. The peptide therapy was started from the 10th day after modeling (the treatment groups are shown in Table 3), and the time was calculated from the 10th day after modeling to count the mortality rate. The death situation of each group of experimental animals was counted and calculated daily. […] The survival rate is the percentage of the number of mice that survived accounting for the number of mice in the whole group. Results are shown in FIG. 6-1, FIG. 6-2 and Table 4. […] In FIG. 6-1 and FIG. 6-2, “##” represents that P value is less than 0.01 when the survival rate of administration group was compared with that of the sham operation group; “*” represents that P value is less than 0.05 when the survival rate of administration group was compared with that of the bleomycin group; “**” represents that P value is less than 0.01 when the survival rate of administration group was compared with that of bleomycin group; and “i.p.” refers to intraperitoneal injection.
The animal model of pulmonary fibrosis was prepared according to the method described in Example 2. The polypeptide treatment was started from the 10th day after modeling (the treatment groups are shown in Table 9), and the time was calculated from the 10th day after modeling to count the mortality rate. The mortality rate of each group of experimental animals was recorded and calculated daily. If none of the animals in a group died, the survival rate of the group is 100%. If all the animals in a group died, the survival rate is 0%. […] In FIG. 12, “##” represents that P value is less than 0.01 when the survival rate of the administration groups were compared with that of the sham operation group; “*” represents that P value is less than 0.05 and “**” represents that P value is less than 0.01 when the survival rate of the administration groups were compared with bleomycin group.

TRB3 protein = target: T1, TRB3 protein (Homo sapiens, UniProt Q96RU7); assay: Surface plasmon resonance (Biacore T200) binding of polypeptides to TRB3 protein; conditions: SPR, FIG. 4-1, 4-2 and Table 1
T1 construct: purchased RD
T1 sequence (Q96RU7 1-358): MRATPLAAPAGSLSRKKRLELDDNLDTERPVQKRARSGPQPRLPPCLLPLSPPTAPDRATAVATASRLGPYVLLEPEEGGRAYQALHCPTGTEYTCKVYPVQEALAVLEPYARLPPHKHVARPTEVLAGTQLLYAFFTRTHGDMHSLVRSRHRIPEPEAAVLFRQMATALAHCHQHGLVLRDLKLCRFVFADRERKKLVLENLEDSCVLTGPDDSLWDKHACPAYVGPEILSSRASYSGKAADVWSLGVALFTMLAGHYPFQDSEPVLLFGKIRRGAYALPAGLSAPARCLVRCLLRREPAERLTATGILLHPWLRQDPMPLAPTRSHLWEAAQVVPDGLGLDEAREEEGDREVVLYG
Method: The surface plasmon resonance experiment was carried out in a surface plasmon resonator Biacore T200, and the procedure was carried out in accordance with the instructions of the plasma resonator Biacore T200. Specific steps are as follows:
1. Purified TRB3 protein (purchased from RD) was coupled to a CMS chip (purchased from GE) by amidogen, and the unbound protein was eluted at a flow rate of 10 μL/min. The surface of the chip was equilibrated for 2 hours. Among them, the specific steps of amidogen coupling, elution and equilibration refer to the relevant instruction of GE's CMS chip.
2. 250 μL of the S1-S11 and MR2 polypeptide fragments prepared in Example 1 with different concentrations (800, 400, 200, 50, 12.5, 6.25, and 3.125 nM) were automatically injected, and the entire surface plasmon resonance experiment was carried out at 25° C. The buffer used was HBS-EP buffer [0.01 M HEPES, 0.15 M NaCl, 3 mM EDTA and 0.005% (w/w) surfactant TWEEN20]. Biacore T200's built-in analysis software was used to simulate the binding curves of different concentrations of peptides to TRB3.

[2] = tested on: mice with bleomycin-induced pulmonary fibrosis; assay: HE staining pathomorphology and inflammatory score of bleomycin-induced pulmonary fibrosis; assay type: in vivo, C57BL/6 mice; conditions: Table 3 groups, 2 mg/kg i.p., after 28 days, grade 0-5
Method: as §1
General tissue changes and tissue products can be visualized by HE staining method, namely Hematoxylin and Eosin staining method, which is the most commonly used staining method for morphology. Among them, hematoxylin dyeing solution is an alkaline dyeing solution, which mainly makes the chromatin in the nucleus and the ribosome in the cytoplasm purple blue; eosin is an acid dye, which mainly makes the components in the cytoplasm and extracellular matrix red. Pulmonary fibrosis models were made according to the method described in Example 2 and administered in groups according to Table 3. After 28 days, the right lower lobe of lung tissue of the experimental animals was taken, and fixed with 4% (v/v) paraformaldehyde and embedded in paraffin. Section was performed on the largest cross-section of the paraffin block in which the lung tissue embedded, and basic pathological changes was observed through HE staining. […] The administration of polypeptides S1-S11 can reduce lung inflammation caused by bleomycin, and effectively ameliorate lung injury and restore normal lung structure.
The inflammatory grading was observed according to the results of HE staining, and the criteria were as follows (grade 0-5): grade “0”: normal tissue; grade “1”: extremely small inflammatory changes; grade “2”: mild to moderate inflammatory changes without apparent destruction of lung tissue structure; grade “3”: moderate inflammatory injury (thickening of alveolar diaphragm); grade “4”: moderate to severe inflammatory injury with formation of tissue mass, or the normal structure of lung tissue was destroyed by localized pneumonia area; grade “5”: severe inflammatory injury, severe destruction of the localized lung tissue structure, resulting in closure of lumen.
Pulmonary fibrosis models were made according to the method described in Example 2 and administered in groups according to Table 9. After 28 days, the right lower lobe of lung tissue of the experimental animals was taken, and fixed by 4% (v/v) paraformaldehyde and embedded in paraffin. Section was performed on the largest cross-section of the paraffin block in which the lung tissue embedded, and basic pathological changes was observed through HE staining.

Q: How did the “Survival rate (%) 7 days” value [1] turn out when `CSCC[C@H](NC(=O)[C@H](CC(C)C)NC(=O)[C@@H](N)Cc1c[nH]cn1)C(=O)N[C@@H](C)C(=O)N[C@@H](CS)C(=O)N[C@@H](Cc1ccccc1)C(=O)N[C@H](C(=O)N[C@@H](CS)C(=O)N[C@@H](C)C(=O)N[C@@]1(C)CCCC=CCCC[C@@](C)(C(=O)N[C@@H](CCCNC(=N)N)C(=O)O)NC(=O)[C@H](CCCCN)NC(=O)[C@H](CC(C)C)NC(=O)[C@H](CCCCN)NC1=O)[C@@H](C)O` [S10, His-Leu-Met-Ala-Cys-Phe-Thr-Cys-Ala-S5-Lys-Leu-Lys-S5-Arg] (H-HLMACFTCA[S5]KLK[S5]R-OH; staple 10-14; N-terminus and C-terminus assumed) was run?
A: 100%

Q: What about the “Survival rate (%) 14 days” value [1] of the same compound?
A: 93.33%

Q: And the “Survival rate (%) 21 days” value [1]?
A: 80%

Q: What about the “Survival rate (%) 28 days” value [1] of the same compound?
A: 80%

Q: What about the “interaction with the TRB3 protein (in words)” value (shortened to “interaction”) (TRB3 protein) of the same compound?
A: interacted with the TRB3 protein

Q: What about the Inflammatory score [2] of the same compound?
A: 3

Q: How did the “Survival rate (%) 7 days” value [1] turn out when `CSCC[C@H](NC(=O)[C@H](CC(C)C)NC(=O)[C@@H](N)Cc1c[nH]cn1)C(=O)N[C@@]1(C)CCCC=CCCC[C@@](C)(C(=O)N[C@@H](C)C(=O)N[C@@H](CCCCN)C(=O)N[C@@H](CCCCN)C(=O)N[C@@H](CC(C)C)C(=O)N[C@@H](CCCCN)C(=O)N[C@@H](CCCCN)C(=O)N[C@@H](CCCNC(=N)N)C(=O)O)NC(=O)[C@H]([C@@H](C)O)NC(=O)[C@H](Cc2ccccc2)NC(=O)[C@H](CS)NC1=O` [S4, His-Leu-Met-S5-Cys-Phe-Thr-S5-Ala-Lys-Lys-Leu-Lys-Lys-Arg] (H-HLM[S5]CFT[S5]AKKLKKR-OH; staple 4-8; N-terminus and C-terminus assumed) was run?
A: 100%

Q: What about the “Survival rate (%) 14 days” value [1] of the same compound?
A: 86.67%

Q: What about the “Survival rate (%) 21 days” value [1] of the same compound?
A: 80%

Q: What about the “Survival rate (%) 28 days” value [1] of the same compound?
A: 80%

Q: And the “interaction” value (TRB3 protein)?
A: interacted with the TRB3 protein

Q: What about the Inflammatory score [2] of the same compound?
A: 2.833

Q: How did the “Survival rate (%) 7 days” value [1] turn out when `CSCC[C@H](NC(=O)[C@H](CC(C)C)NC(=O)[C@@H](N)Cc1c[nH]cn1)C(=O)N[C@@H](C)C(=O)N[C@@H](CS)C(=O)N[C@@H](Cc1ccccc1)C(=O)N[C@H](C(=O)N[C@@]1(C)CCCC=CCCC[C@@](C)(C(=O)N[C@@H](CCCCN)C(=O)N[C@@H](CCCCN)C(=O)N[C@@H](CCCNC(=N)N)C(=O)O)NC(=O)[C@H](CCCCN)NC(=O)[C@H](CCCCN)NC(=O)[C@H](C)NC1=O)[C@@H](C)O` [S8, His-Leu-Met-Ala-Cys-Phe-Thr-S5-Ala-Lys-Lys-S5-Lys-Lys-Arg] (H-HLMACFT[S5]AKK[S5]KKR-OH; staple 8-12; N-terminus and C-terminus assumed) was run?
A: 100%

Q: What about the “Survival rate (%) 14 days” value [1] of the same compound?
A: 100%

Q: And the “Survival rate (%) 21 days” value [1]?
A: 93.33%

Q: And the “Survival rate (%) 28 days” value [1]?
A: 86.67%

Q: What about the “interaction” value (TRB3 protein) of the same compound?
A: interacted with the TRB3 protein

Q: What about the Inflammatory score [2] of the same compound?
A: 2.833

Q: Which results are given for `CC(C)C[C@H](NC(=O)[C@H](CCCCN)NC(=O)[C@H](CCCCN)NC(=O)[C@H](C)NC(=O)[C@H](CS)NC(=O)[C@]1(C)CCCC=CCCC[C@](C)(NC(=O)[C@H](CC(C)C)NC(=O)[C@@H](N)Cc2c[nH]cn2)C(=O)N[C@@H](C)C(=O)N[C@@H](CS)C(=O)N[C@@H](Cc2ccccc2)C(=O)N1)C(=O)N[C@@H](CCCCN)C(=O)N[C@@H](CCCCN)C(=O)N[C@@H](CCCNC(=N)N)C(=O)O` [S3, His-Leu-S5-Ala-Cys-Phe-S5-Cys-Ala-Lys-Lys-Leu-Lys-Lys-Arg] (H-HL[S5]ACF[S5]CAKKLKKR-OH; staple 3-7; N-terminus and C-terminus assumed)?
A: Survival rate (%) 7 days [1]: 100%; Survival rate (%) 14 days [1]: 93.33%; Survival rate (%) 21 days [1]: 86.67%; Survival rate (%) 28 days [1]: 86.67%; interaction with the TRB3 protein (in words) (TRB3 protein): interacted with the TRB3 protein; Inflammatory score [2]: 2.5

Q: With `CSCC[C@H](NC(=O)[C@H](CC(C)C)NC(=O)[C@@H](N)Cc1c[nH]cn1)C(=O)N[C@@H](C)C(=O)N[C@@H](CS)C(=O)N[C@@H](Cc1ccccc1)C(=O)N[C@H](C(=O)N[C@@H](CS)C(=O)N[C@@H](C)C(=O)N[C@@H](CCCCN)C(=O)N[C@@H](CCCCN)C(=O)N[C@@H](CC(C)C)C(=O)N[C@@H](CCCCN)C(=O)N[C@@H](CCCCN)C(=O)N[C@@H](CCCNC(=N)N)C(=O)O)[C@@H](C)O` [MR2] (H-HLMACFTCAKKLKKR-OH; N-terminus and C-terminus assumed) as the compound, how does the “Survival rate (%) 7 days” value [1] read?
A: 100%

Q: And the “Survival rate (%) 14 days” value [1]?
A: 93.33%

Q: And the “Survival rate (%) 21 days” value [1]?
A: 73.33%

Q: And the “Survival rate (%) 28 days” value [1]?
A: 66.67%

Q: What about the “interaction” value (TRB3 protein) of the same compound?
A: interacted with the TRB3 protein

Q: What about the Inflammatory score [2] of the same compound?
A: 4

Q: With `CSCC[C@H](NC(=O)[C@H](CC(C)C)NC(=O)[C@@H](N)Cc1c[nH]cn1)C(=O)N[C@@H](C)C(=O)N[C@@H](CS)C(=O)N[C@@H](Cc1ccccc1)C(=O)N[C@H](C(=O)N[C@@H](CS)C(=O)N[C@@H](C)C(=O)N[C@@H](CCCCN)C(=O)N[C@@]1(C)CCCC=CCCC[C@@](C)(C(=O)O)NC(=O)[C@H](CCCCN)NC(=O)[C@H](CCCCN)NC(=O)[C@H](CC(C)C)NC1=O)[C@@H](C)O` [S11, His-Leu-Met-Ala-Cys-Phe-Thr-Cys-Ala-Lys-S5-Leu-Lys-Lys-S5] (H-HLMACFTCAK[S5]LKK[S5]-OH; staple 11-15; N-terminus and C-terminus assumed) as the compound, how does the “Survival rate (%) 7 days” value [1] read?
A: 100%

Q: What about the “Survival rate (%) 14 days” value [1] of the same compound?
A: 93.33%

Q: What about the “Survival rate (%) 21 days” value [1] of the same compound?
A: 86.67%

Q: And the “Survival rate (%) 28 days” value [1]?
A: 86.67%

Q: And the “interaction” value (TRB3 protein)?
A: interacted with the TRB3 protein

Q: And the Inflammatory score [2]?
A: 3
